From patent publication US11136352B2, “Immunotherapy against several tumors including neuronal and brain tumors” (IMMATICS BIOTECHNOLOGIES GMBH, priority 2008, dated 2021)

system: CD8+ T cells from HLA-A*02+ buffy coats of healthy donors; test: In vitro priming of CD8+ T cells with pMHC/anti-CD28 coated beads (aAPC), tetramer readout; format: cell-based, human; details: healthy HLA-A*02+ donors; three in vitro stimulations; TUMAP-specific tetramer+ CD8+ T cells
Protocol: To perform in vitro stimulations by artificial antigen presenting cells (aAPC) loaded with peptide-MHC complex (pMHC) and anti-CD28 antibody, first we isolated PBMCs (peripheral blood mononuclear cells) from fresh HLA-A*02+ buffy coats by using standard density gradient separation medium (PAA, Cölbe, Germany). Buffy coats were either obtained from the Blood Bank Tubingen or from the Katharinenhospital Stuttgart. Isolated PBMCs were incubated overnight in T-cell medium (TCM) for human in vitro priming consisting of RPMI-Glutamax (Invitrogen, Karlsruhe, Germany) supplemented with 10% heat inactivated human AB serum (PAA, Cölbe, Germany), 100 U/ml Penicillin/100 μg/ml Streptomycin (Cambrex, Verviers, Belgium), 1 mM sodium pyruvate (CC Pro, Neustadt, Germany) and 20 μg/ml Gentamycin (Cambrex). CD8+ lymphocytes were isolated using the CD8+ MACS positive selection kit (Miltenyi, Bergisch Gladbach, Germany) according to the manufacturer's instructions. […] 800.000 beads/200 μl were coated in 96-well plates in the presence of 600 ng biotin anti-CD28 plus 200 ng relevant biotin-pMHC (high density beads) or 2 ng relevant plus 200 ng irrelevant (pMHC library) MHC (low density beads). Stimulations were initiated in 96-well plates by co-incubating 1×10^6 CD8+ T cells with 2×10^5 washed coated beads in 200 μl TCM supplemented with 5 ng/ml IL-12 (PromoCell) for 3-4 days at 37° C. Half of the medium was then exchanged by fresh TCM supplemented with 80 U/ml IL-2 and incubating was continued for 3-4 days at 37° C. This stimulation cycle was performed for a total of three times. […] Peptide specific cells were calculated as percentage of total CD8+ T cells. Evaluation of tetrameric analysis was done using the software FCS Express (De Novo Software). In vitro priming of specific tetramer+CD8+ lymphocytes was detected by appropriate gating and by comparing to negative control stimulations.

| Compound | Positive donors/donors tested [%] | Positive wells/wells tested [%] |
| --- | --- | --- |
| TLVGIIVGV (listed as Homo sapiens) [PDPN-001, HLA-A*02 peptide from PDPN] | 60 | 11 |
| KIQEILTQV (listed as Homo sapiens) [IGF2BP3-001, HLA-A*02 peptide from IGF2BP3] | 50 | 21 |
| GLQSQIAQV (listed as Homo sapiens) [NES-001, HLA-A*02 peptide from NES] | 75 | 38 |
| GLWHHQTEV (listed as Homo sapiens) [NRCAM-001, HLA-A*02 peptide from NRCAM] | 86 | 39 |
| QLLAGVFLA (listed as Homo sapiens) [TNC-002, HLA-A*02 peptide from TNC] | 50 | 14 |
| CSCC[C@H](NC(=O)[C@@H](N)[C@@H](C)O)C(=O)N[C@@H](CC(C)C)C(=O)N[C@@H](C)C(=O)N[C@@H](CCCNC(=N)N)C(=O)N[C@@H](CC(C)C)C(=O)N[C@@H](C)C(=O)N[C@@H](CO)C(=O)N[C@@H](C)C(=O)O [CSP-001] | 100 | 57 |
| ALWAWPSEL (listed as Homo sapiens) [BCA-002, HLA-A*02 peptide from BCAN] | 75 | 35 |
| AMTQLLAGV (listed as Homo sapiens) [TNC-001, HLA-A*02 peptide from TNC] | 60 | 30 |
| YLIAGIISL (listed as Homo sapiens) [SLCO1C1-001, HLA-A*02 peptide from SLCO1C1] | 60 | 7 |
| NLDTLMTYV (listed as Homo sapiens) [NLGN4X-001, HLA-A*02 peptide from NLGN4X] | 100 | 62 |
| FLGDPPEKL (listed as Homo sapiens) [BCA-001, HLA-A*02 peptide from BCAN] | 60 | 5 |
| SLNELRVLL (listed as Homo sapiens) [CLIP2-001, HLA-A*02 peptide from CLIP2] | 75 | 6 |
| LTFGDVVAV (listed as Homo sapiens) [FABP7-001, HLA-A*02 peptide from FABP7] | 100 | 27 |

system: precursor T cells of glioblastoma patients; test: In vitro immunogenicity in a small number of glioblastoma patients; format: cell-based, human; details: compared with healthy donors

| Compound | Immunogenicity in glioblastoma patients |
| --- | --- |
| ALWAWPSEL (listed as Homo sapiens) [BCA-002, HLA-A*02 peptide from BCAN] | immunogenic to a similar extent compared with healthy donors |
| NLDTLMTYV (listed as Homo sapiens) [NLGN4X-001, HLA-A*02 peptide from NLGN4X] | immunogenic to a similar extent compared with healthy donors |

system: granzyme B-secreting CTLs; test: not given; details: type 1 diabetic patients and antibody-positive relatives compared with healthy donors; cited from earlier work

| Compound | Reactivity of granzyme B-secreting CTLs |
| --- | --- |
| NLAQDLATV (listed as Homo sapiens) [GFAP-001, HLA-A*02 peptide from GFAP] | enhanced reactivity |
